According to article PMC9570594, “Development of Novel Pyridine-Thiazole Hybrid Molecules as Potential Anticancer Agents” (Molecules, 2022):

How the values were obtained:
CCRF-CEM (Leukemia) = experiment: NCI five-dose SRB assay; assay type: cell-based; settings: Homo sapiens, 48 h
[1] = test system: NCI-H23 (Non-Small Cell Lung Cancer); experiment: NCI five-dose SRB assay; assay type: cell-based; settings: Homo sapiens, 48 h
HCT-15 (Colon Cancer) = experiment: NCI five-dose SRB assay; assay type: cell-based; settings: Homo sapiens, 48 h
SW-629 (Colon Cancer) = experiment: NCI five-dose SRB assay; assay type: cell-based; settings: Homo sapiens, 48 h
SNB-19 (CNS Cancer) = experiment: NCI five-dose SRB assay; assay type: cell-based; settings: Homo sapiens, 48 h
MALME-3M (Melanoma) = experiment: NCI five-dose SRB assay; assay type: cell-based; settings: Homo sapiens, 48 h
IGROV-1 (Ovarian Cancer) = experiment: NCI five-dose SRB assay; assay type: cell-based; settings: Homo sapiens, 48 h
[2] = test system: Ovarian Cancer cell lines (MG_MID); experiment: NCI five-dose SRB assay; assay type: cell-based; settings: Homo sapiens, 48 h
A498 (Renal Cancer) = experiment: NCI five-dose SRB assay; assay type: cell-based; settings: Homo sapiens, 48 h
SN12C (Renal Cancer) = experiment: NCI five-dose SRB assay; assay type: cell-based; settings: Homo sapiens, 48 h
DU-145 (Prostate Cancer) = experiment: NCI five-dose SRB assay; assay type: cell-based; settings: Homo sapiens, 48 h
MCF-7 cells [3] = experiment: Clonogenic assay; assay type: cell-based, human; settings: 10 days
Protocol: This assay essentially tests every cell in the population for its ability to undergo “unlimited” division. […] At 1 µM concentration, it reduced the ability of the MCF-7 single cell to grow into a colony to 36%. […] With a concentration equivalent to 10 µM of the compound 4, the DMSO increased the cell’s ability to grow in colony.
MCF-7 cells were seeded in triplicate in 6-well plates (CytoONE, STARLAB International GmbH, Germany) at a density of 500 cells per well. After 24 h incubation, the compound 4 was added in 1 and 10 μM concentrations and cells were treated for 10 days. Colonies containing ≥ 50 cells were fixed with 50% (v/v) methanol in the PBS and stained with crystal violet (Sigma-Aldrich, Burlington, MA, USA). Stained colonies were counted and expressed as a fraction of the untreated control.

KB3-1 cells = experiment: Fluorescent microscopy of morphological changes (Hoechst 33342/PI); assay type: cell-based, human; settings: KB3-1, 5 µM, 48 h
Protocol: In addition, we observed multinucleated giant cells. […] The condensed chromatin, a characteristic feature of apoptosis, and dead cells were observed under the action of all studied compounds.
KB3-1 cells were seeded in the 12-well plates (CytoONE, STARLAB International GmbH, Hamburg, Germany) on glass microscopic slides and incubated overnight. Studied compounds were added to cells in the following concentrations: the compounds 3, 4 and cisplatin—5 µM/mL, doxorubicin—1 µM/mL. Cells were incubated for the next 48 h. Chromatin material of living and apoptotic cells was stained with the DNA-specific fluorescent dye Hoechst 33342 (Sigma-Aldrich, Burlington, MA, USA) and the DNA/RNA-specific fluorescent dye Propidium iodide (PI, Sigma, Burlington, MA, USA). Fluorochromes were added to cultured cells at final concentrations 0.2–0.5 μg/mL for Hoechst 33342 and 0.1 μg/mL—for PI. Images were made with a fluorescent Zeiss microscope (Carl Zeiss, Oberkochen, Germany). Magnification ×400. Microphotographs were additionally analyzed using ImagePro7N software.

[4] = test system: MCF-7 breast cancer cells; experiment: Mitochondrial membrane potential, JC-1 (flow cytometry); assay type: cell-based, human; settings: MCF-7, 5 µM, 24 h, control 5.1 ± 0.7%
Protocol: A decrease in the mitochondrial membrane potential (MMP, ΔΨm) is one of the earliest changes observed at apoptosis. […] The MCF-7 cells had depolarized mitochondria, reaching 25.3 ± 1.5% and 24.7 ± 0.4% of the cell population treated with the compound 4 and 7, respectively. In the control, there were only 5.1 ± 0.7% cells with a decreased ΔΨm.
Disruption of the MMP was assessed using the lipophilic cationic probe 5,5,6,6-tetrachloro-1,1,3,3-tetraethylbenzimidazolcarbocyanine iodide (JC-1 MitoScreen kit; BD Biosciences San Diego, CA, USA), as described previously. The entire assay was performed according to the manufacturer’s instructions provided with the purchased kit. […] Briefly, unfixed MCF-7 cells were washed and resuspended in the PBS supplemented with the JC-1 dye. Then, cells were incubated for 15 min at room temperature (RT) in the dark, washed, and resuspended in the PBS for the immediate BD FACSCanto II flow cytometry analysis.

MCF-7 cells [5] = experiment: Chemical synthetic lethality: MTT after preincubation with BRCA1 inhibitor Bractoppin; assay type: cell-based; settings: Homo sapiens, MCF7; MCF-7, 30 min preincubation with Bractoppin, 72 h MTT; read-out: IC50 in the case of BRCA1 inhibition
[6] = test system: NCI-H522 (Non-Small Cell Lung Cancer); experiment: NCI one-dose SRB assay; settings: 10 μM, 48 h
Protocol: Primary anticancer assays (Table 3) on a panel of 60 cancer cell lines at one dose-assay (10^−5 M) were performed according to the NCI protocol, as described elsewhere [31, 32, 33, 34, 35].
(§1) A primary anticancer assay was performed on a panel of approximately sixty human tumor cell lines derived from nine neoplastic diseases, in accordance with the protocol of the Drug Evaluation Branch, National Cancer Institute, Bethesda [31, 32, 33, 34, 35]. Tested compounds were added to the culture at a single concentration (10^−5 M) and the cultures were incubated for 48 h. End point determinations were made with a protein binding dye, Sulphorhodamine B (SRB). […] The percentage growth was evaluated spectrophotometrically versus controls not treated with test agents.

SF-539 (CNS Cancer) = experiment: NCI one-dose SRB assay; settings: 10 μM, 48 h
Protocol: as §1

SK Mel-2 (Melanoma) = experiment: NCI one-dose SRB assay; settings: 10 μM, 48 h
[7] = test system: HCT-116 p53 (−/−) colon cancer cells; experiment: MTT assay of cell viability; settings: Homo sapiens, HCT-116, 72 h
Source text: The cell lines used in our work were kindly provided by a Collection at the Institute of Molecular Biology and Genetics, National Academy of Sciences of Ukraine (Kyiv, Ukraine).

[8] = test system: murine macrophages of J774.2 line; experiment: MTT assay of cell viability; settings: Mus musculus, J774.2, 72 h
[9] = test system: human embryonic kidney HEK293 cells; experiment: MTT assay of cell viability; settings: HEK293, 72 h
[10] = test system: BALB-3T3 (normal mouse fibroblasts); experiment: MTT assay of cell viability; settings: BALB/3T3, 72 h

**Q.** For `CCOC(=O)c1ccc(NC(=O)CSC(CC(=O)c2sc(Nc3ccccn3)nc2C)c2ccccc2F)cc1` (centres unmarked) [Compound 4, Ethyl 4-[[2-[1-(2-Fluorophenyl)-3-[4-methyl-2-(2-pyridylamino)thiazol-5-yl]-3-oxopropyl]sulfanylacetyl]amino]benzoate], which GI50 (CCRF-CEM (Leukemia)) is on record?
**A.** 18.6 µM

**Q.** And the GI50 [1]?
**A.** 22.7 µM

**Q.** What about the GI50 (HCT-15 (Colon Cancer)) of the same compound?
**A.** 25.8 µM

**Q.** What about the GI50 (SW-629 (Colon Cancer)) of the same compound?
**A.** 75.3 µM

**Q.** What about the GI50 (SNB-19 (CNS Cancer)) of the same compound?
**A.** 36.9 µM

**Q.** What about the GI50 (MALME-3M (Melanoma)) of the same compound?
**A.** 25.4 µM

**Q.** And the GI50 (IGROV-1 (Ovarian Cancer))?
**A.** 12.1 µM

**Q.** And the GI50 [2]?
**A.** 41.1 µM

**Q.** What about the GI50 (A498 (Renal Cancer)) of the same compound?
**A.** 69.2 µM

**Q.** What about the GI50 (SN12C (Renal Cancer)) of the same compound?
**A.** 28 µM

**Q.** And the GI50 (DU-145 (Prostate Cancer))?
**A.** 67.2 µM

**Q.** And the “ability of single cell to grow into a colony (compared with control)” value (MCF-7 cells [3]; MCF-7, 1 µM)?
**A.** 36%

**Q.** What about the colony formation (MCF-7 cells [3]; MCF-7, 10 µM) of the same compound?
**A.** No colony formation was observed

**Q.** What about the morphological changes (KB3-1 cells) of the same compound?
**A.** changes in nuclear morphology, similar to a mitotic catastrophe

**Q.** And the “cells with depolarized mitochondria (decreased ΔΨm)” value [4]?
**A.** 25.3 ± 1.5%

**Q.** What about the IC50 (MCF-7 cells [5]) of the same compound?
**A.** 0.7 µM

**Q.** What about the Growth % [6] of the same compound?
**A.** −22.73%

**Q.** What about the Growth % (SF-539 (CNS Cancer)) of the same compound?
**A.** −27.26%

**Q.** What about the Growth % (SK Mel-2 (Melanoma)) of the same compound?
**A.** −31.22%

**Q.** What about the IC50 [7] of the same compound?
**A.** 3.43 ± 0.9 µM

**Q.** What about the IC50 [8] of the same compound?
**A.** > 50 µM

**Q.** What about the IC50 [9] of the same compound?
**A.** > 50 µM

**Q.** And the IC50 [10]?
**A.** 7.79 ± 0.38 µM
